These results are taken from PubChem BioAssay (NCI).

Common to all, as to experiment: inhibition of tumour cell growth, NCI panel, 48 h
Experiment [1] has as its system A549 NSCLC.
Experiment [2] concerns MDA-MB-435.
The subject of experiment [3] is NCI-H226 lung.
For experiment [4], the system named is OVCAR-4 ovarian.
Experiment [5] relates to MDA-N.
The test system of experiment [6] is IGROV1 ovarian.
Experiment [7] concerns OVCAR-3 ovarian.
For experiment [8], the system named is SR leukemia.
Experiment [9] has as its system MCF7 breast.
For experiment [10], the system named is SK-MEL-5 melanoma.

Structures are written as SMILES.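 The compound was tested at five concentrations on cells cultured in 96-well plates, with a 48-hour exposure period. TGI marks complete inhibition of growth.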

Turning to `COP(=O)(OC)C(N)CCSC` (stereo not given), the TGI in experiment [1], in experiment [2], in experiment [3], in [4], in experiment [5] and in experiment [6] was > 100 µM in each case. The TGI in experiment [7], in experiment [8], in experiment [9] and in [10] was > 100 µM in each case.

As for `CC(=O)/C=C/C=C(\C)CC/C=C(\C)CC(C)C`, the TGI is > 100 µM in experiment [1]; 77.1 µM in experiment [2]; 68.6 µM in experiment [3]; > 100 µM in [4]; > 100 µM in experiment [5]; > 100 µM in experiment [6]. Besides, the TGI in experiment [7] came to 78.7 µM; in experiment [8], 39.1 µM; in experiment [9] it was 57.9 µM; in experiment [10], 35.5 µM.

Turning to `C/C(O)=C(\C=N\C(N)=S)C(=O)Nc1ccccc1C`, the TGI in experiment [1], in experiment [2], in experiment [3], in [4], in [5] and in experiment [6] was > 100 µM each time. For the same molecule, the TGI in experiment [7], in [8], in experiment [9] and in experiment [10] was > 100 µM each time.

With `Cc1cc(S(=O)(=O)Nc2nnc3c(C(F)(F)F)cc(Cl)cn23)c(S)cc1Cl`, the TGI in experiment [1], in [2], in [3], in [4], in experiment [5] and in [6] was > 100 µM throughout. Also, the TGI in experiment [7], in experiment [8], in experiment [9] and in [10] was > 100 µM each time.

`Cc1ccc(C(=O)N(C(C)C)C(C)C)cc1N=NN(C)C`: the TGI in experiment [1], in experiment [2], in [3], in experiment [4], in experiment [5] and in experiment [6] was > 100 µM throughout. In addition, the TGI in experiment [7], in experiment [8], in experiment [9] and in experiment [10] was > 100 µM each time.

Turning to `CCOC(=O)c1ccc(C(=O)C(C(C)=O)C(=O)OC(C)(C)C)n1C` (stereo not given), the TGI in experiment [1], in [2], in experiment [3], in [4], in [5] and in [6] was > 100 µM in each case. Besides, the TGI in experiment [7], in [8], in [9] and in [10] was > 100 µM throughout.

For the molecule `OCC1OC(n2cnc3cccnc32)CC1O` (stereo not given), the TGI in experiment [1], in experiment [2], in [3], in [4], in [5] and in experiment [6] was > 100 µM each time. In addition, the TGI in [7], in experiment [8], in [9] and in [10] was > 100 µM throughout.

In the case of `CN(C)CCOC(=O)COc1ccc(Cl)cc1`, the TGI in experiment [1], in experiment [2], in experiment [3], in experiment [4], in [5] and in experiment [6] was > 100 µM each time. Also, the TGI in [7], in experiment [8], in experiment [9] and in [10] was > 100 µM in each case.

For the molecule `C#CCNC(Cc1cnc[nH]1)C(=O)O` (stereo not given), the TGI in experiment [1], in experiment [2], in [3], in experiment [4], in experiment [5] and in [6] was > 100 µM throughout. Also, the TGI in [7], in experiment [8], in [9] and in experiment [10] was > 100 µM throughout.

On to `C=CCC(CNC(=O)OCc1ccccc1)O[Si](C)(C)C(C)(C)C` (stereo not given), for which the TGI in [1] is > 100 µM; in [2], > 100 µM; in experiment [3], 85.8 µM; in experiment [4], > 100 µM; in experiment [5], > 100 µM; in experiment [6], 84.3 µM. For the same molecule, the TGI in experiment [7] is > 100 µM; in experiment [8] it was 46.4 µM; in experiment [9], 57.7 µM; in experiment [10] it was 31.8 µM.

Regarding `Cc1csc2c1C(=O)c1ccsc1C2=O`, the TGI in experiment [1] is 3.55 µM; in experiment [2], 0.447 µM; in experiment [3] it was 23.4 µM; in experiment [4], 3.34 µM; in experiment [5], 0.889 µM; in [6] it was 11.8 µM. For the same molecule, the TGI was 5.44 µM in experiment [7], > 45 µM in experiment [8], 2.98 µM in [9] and 1.82 µM in experiment [10].

Consider `O=C(C1=C(C(=O)c2ccccc2)SC2(S1)C(C(=O)c1ccccc1)=C(C(=O)c1ccccc1)Sc1c2ssc1=O)c1ccccc1`, for which the TGI was > 100 µM in experiment [1]; > 100 µM in experiment [2]; 55 µM in experiment [3]; > 100 µM in [4]; > 100 µM in experiment [5]; > 100 µM in experiment [6]. For the same molecule, the TGI in experiment [7], in experiment [8], in [9] and in experiment [10] was > 100 µM each time.

For `CC[C@]12C=CCN3CCC4(c5cc(N=Nc6ccccc6)c(OC)cc5N(C)[C@H]4[C@@](O)(C(=O)OC)[C@@H]1OC(C)=O)[C@@H]32` (stereo not given in full), the TGI was 40.9 µM in experiment [1]; 37.9 µM in [2]; 51.5 µM in experiment [3]; 38.8 µM in [4]; 35.8 µM in experiment [5]; 32.5 µM in experiment [6]. Moreover, the TGI worked out at 28.1 µM in [7], 45.5 µM in experiment [8], 34.4 µM in [9] and 44.2 µM in experiment [10].
